Measurements taken from US10786477B2, “Formulations having anti-inflammatory activity and antimicrobial activity against gram-positive bacteria” (NATUREZA, INC., priority 2014, dated 2020).
In brackets after ≈: the same amount, converted by molar mass. Where two headings read alike, the source gives them in different places.

Legend:
C. albicans = assay: MIC of fungi, CLSI broth microdilution M27; format: cell-based; details: Candida albicans; Table 2; active component range 0.08-8 mg/ml
S. mitis = assay: MIC, CLSI broth microdilution M07; format: cell-based, Streptococcus mitis
C. difficile = assay: MIC, CLSI broth microdilution M07; format: cell-based, Clostridium difficile
E coli = assay: MIC, CLSI broth microdilution M07; format: cell-based, Escherichia coli
bacteria = details: background, cited from earlier work; for antibacterial / antimicrobial activity: compared with lauric acid
S. pyogenes = assay: MIC, CLSI broth microdilution M07; format: cell-based, Streptococcus pyogenes
Candida = assay: MIC of fungi, CLSI broth microdilution M27; format: cell-based
Mycobacterium = assay: MIC, CLSI broth microdilution; format: cell-based; details: Table 1; active component in compositions of first example; range 0.08-5 wt.%
Bifidobacterium = assay: MIC, CLSI broth microdilution M07; format: cell-based
S. aureus = assay: MIC, CLSI broth microdilution M07; format: cell-based, Staphylococcus aureus
[1] = system: strains of Staphylococcus; assay: Bacterial growth in presence of first-example suspensions; format: cell-based, Staphylococcus spp.; details: first example: optically clear suspensions of 1 wt.% active component combined with 2% bile
From the text: In these examples, the optically clear suspensions were combined with 2% bile when evaluating activity against various bacteria.

S. epidemidis = assay: MIC, CLSI broth microdilution M07; format: cell-based, Staphylococcus epidermidis
S. mutans = assay: MIC, CLSI broth microdilution M07; format: cell-based, Streptococcus mutans
L. acidophilus = assay: MIC, CLSI broth microdilution M07; format: cell-based; details: Lactobacillus acidophilus; Table 2; active component range 0.08-8 mg/ml; >8 = no inhibitory effect
M. bovis = assay: microbe, parasite or virus in culture; format: cell-based
B. bifidum = assay: MIC, CLSI broth microdilution M07; format: cell-based; details: Bifidobacterium bifidum; Table 2; active component range 0.08-8 mg/ml; >8 = no inhibitory effect
Lactobacillus spp. = assay: MIC, CLSI broth microdilution M07; format: cell-based
[2] = Table 1, active component in compositions of first example, range 0.08-5 wt.%
[3] = Table 3, active component range 0.0009-8 μg/ml, values match chitosan-coated liposomes of third example
[4] = Clostridioides difficile, Table 2, active component range 0.08-8 mg/ml, read-out: MIC
[5] = Escherichia coli, Table 2, active component range 0.08-8 mg/ml, >8 = no inhibitory effect, read-out: MIC
[6] = Table 1, active component in compositions of first example, range 0.08-5 wt.%, >>5% = no inhibitory effect
[7] = Staphylococcus aureus, Table 2, active component range 0.08-8 mg/ml, read-out: MIC
[8] = Streptococcus mutans, Table 2, active component range 0.08-8 mg/ml, read-out: MIC
[9] = Mycobacterium tuberculosis variant bovis

| Structure (SMILES) | MIC (C. albicans) [µg/mL] | MIC (S. mitis; [2]) [%] | MIC (S. mitis; [3]) [%] | MIC (C. difficile; [4]) [µg/mL] | MIC (C. difficile; [2]) [%] | MIC (C. difficile; [3]) [%] | MIC (E coli; [5]) [µg/mL] | MIC (E coli; [6]) | MIC (E coli; [3]) | antibacterial / antimicrobial activity (bacteria) | MIC (S. pyogenes; [2]) [%] | MIC (S. pyogenes; [3]) [%] | MIC (Candida; [2]) [%] | MIC (Candida; [3]) [%] | MIC (Mycobacterium) [%] | MIC (Bifidobacterium; [6]) | MIC (Bifidobacterium; [3]) | MIC (S. aureus; [7]) [µg/mL] | MIC (S. aureus; [2]) [%] | MIC (S. aureus; [3]) [%] | further results |
| --- | --- | --- | --- | --- | --- | --- | --- | --- | --- | --- | --- | --- | --- | --- | --- | --- | --- | --- | --- | --- | --- |
| CCCCCCCCCCCC(=O)OCC [EL, ethyl laurate] | < 80 | 0.5 | 0.0018 | 800 (≈ 3.5 mM) | 0.5 | 0.0018 | > 8000 | >>5%^ | >>5% | little or no antimicrobial activity | 0.5 | 0.0018 | 0.5 | 0.0018 | 1 | >>5%^ | >>5% | 800 (≈ 3.5 mM) | 0.5 | 0.0018 | activity relative to lauric acid (times less active) (bacteria): forty times less active; effect on bacterial growth [1]: completely bacteriostatic; MIC (S. epidemidis; [2]): 0.5%; MIC (S. epidemidis; [3]): 0.0018%; MIC (S. mutans; [8]): 800 µg/mL (≈ 3.5 mM); MIC (S. mutans; [2]): 0.5%; MIC (S. mutans; [3]): 0.0018%; MIC (L. acidophilus): > 8000 µg/mL; MIC (M. bovis; [9]): 2000 µg/mL (≈ 8.76 mM); MIC (M. bovis; [3]): 0.0018%; MIC (B. bifidum): > 8000 µg/mL; MIC (Lactobacillus spp.; [6]): >>5%^; MIC (Lactobacillus spp.; [3]): >>5% |
| CCCCCCCCCCCC(=O)OC [ML, methyl laurate] | < 80 | 0.5 | 0.0018 | 800 (≈ 3.73 mM) | 1 | 0.0018 | > 8000 | >>5%^ | >>5% | some modest antibacterial activity in vitro | 0.5 | 0.0018 | 0.5 | 0.0018 | 0.5 | >>5%^ | >>5% | 800 (≈ 3.73 mM) | 0.5 | 0.0018 | effect on bacterial growth [1]: significantly retarded bacterial growth; MIC (S. epidemidis; [2]): 0.5%; MIC (S. epidemidis; [3]): 0.0018%; MIC (S. mutans; [8]): 800 µg/mL (≈ 3.73 mM); MIC (S. mutans; [2]): 0.5%; MIC (S. mutans; [3]): 0.0018%; MIC (L. acidophilus): > 8000 µg/mL; MIC (M. bovis; [9]): 2000 µg/mL (≈ 9.33 mM); MIC (M. bovis; [3]): 0.0018%; MIC (B. bifidum): > 8000 µg/mL; MIC (Lactobacillus spp.; [6]): >>5%^; MIC (Lactobacillus spp.; [3]): >>5% |
